Measured values: the supplement of paper PMC10627819

Tests used:
S. aureus Newman [1] = assay: fitness (endpoint OD595 vs no drug) (fraction); higher = more growth
Outline: (§1)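 Fitness is computed from the optical density at which cultures reach stationary phase, divided by the robust mean of no-drug control wells. Any value above 1 is set to 1. Cultures started at OD595 0.01 in 384-well plates with TSB, LB Lennox or CY at 37 °C, and OD595 was read every 30 min for 14 h against a first-reading background.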

B. subtilis 168 [2] = assay: as above
Outline: as §1

S. pneumoniae D39V [3] = assay: as above
Outline: as §1

S. aureus Newman [4] = assay: Bliss interaction score (quartile over a dose matrix) (fitness difference); higher = more antagonism (negative = synergy)
Outline: (§2)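 Growth was read as OD595 when cultures entered stationary phase, and each value was divided by the plate's robust no-drug mean and capped at 1. This normalised ratio is the fitness value, and fitness for each single drug came from the combination data. The Bliss score subtracts the expected fitness, taken as the product, from the observed fitness and is given as quartiles across technical, biological and donor/recipient replicates.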

S. aureus DSM 20231 = assay: as above
Outline: as §2

B. subtilis 168 [5] = assay: as above
Outline: as §2

S. pneumoniae D39V [6] = assay: as above
Outline: as §2
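For Bliss interaction score (quartile over a dose matrix) in this document: first quartile when negative (synergy) and third quartile when positive (antagonism).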
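For fitness (endpoint OD595 vs no drug) in this document: OD595 on entry to stationary phase over no-drug wells; at most 1.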

C[C@@H]1O[C@@H]1P(=O)(O)O [Fosfomycin] + CC(C1CCC(C(O1)OC2C(CC(C(C2O)OC3C(C(C(CO3)(C)O)NC)O)N)N)N)NC [Gentamicin]
fitness, S. aureus Newman [1], one replicate, main component drawn
Settings	first compound 0.781 µg/mL	first compound 1.562 µg/mL	first compound 3.124 µg/mL
partner 0.375 µg/mL	0.589	0.554	0.236
partner 0.75 µg/mL	0.596	0.571	0.232
partner 1.5 µg/mL	0.537	0.447	0.119

main component drawn
Settings	fitness
B. subtilis 168 [2], first compound 1.562 µg/mL, partner 0.0625 µg/mL	0.757
B. subtilis 168 [2], first compound 3.124 µg/mL, partner 0.0625 µg/mL	0.629
S. aureus Newman [1], first compound 0.781 µg/mL, partner 0.5 µg/mL	0.705
S. aureus Newman [1], first compound 0.781 µg/mL, partner 1 µg/mL	0.802
S. aureus Newman [1], first compound 0.781 µg/mL, partner 2 µg/mL	0.796
S. aureus Newman [1], first compound 1.562 µg/mL, partner 0.5 µg/mL	0.585
S. aureus Newman [1], first compound 1.562 µg/mL, partner 1 µg/mL	0.65
S. aureus Newman [1], first compound 1.562 µg/mL, partner 2 µg/mL	0.666
S. aureus Newman [1], first compound 3.124 µg/mL, partner 0.5 µg/mL	0.422
S. aureus Newman [1], first compound 3.124 µg/mL, partner 1 µg/mL	0.455
S. aureus Newman [1], first compound 3.124 µg/mL, partner 2 µg/mL	0.464
S. pneumoniae D39V [3], first compound 1.25 µg/mL, partner 2 µg/mL	0.96
S. pneumoniae D39V [3], first compound 1.25 µg/mL, partner 4 µg/mL	0.944
S. pneumoniae D39V [3], first compound 1.25 µg/mL, partner 8 µg/mL	0.948
S. pneumoniae D39V [3], first compound 2.5 µg/mL, partner 2 µg/mL	0.941
S. pneumoniae D39V [3], first compound 2.5 µg/mL, partner 4 µg/mL	0.896
S. pneumoniae D39V [3], first compound 2.5 µg/mL, partner 8 µg/mL	0.876
S. pneumoniae D39V [3], first compound 5 µg/mL, partner 2 µg/mL	0.715
S. pneumoniae D39V [3], first compound 5 µg/mL, partner 4 µg/mL	0.674
S. pneumoniae D39V [3], first compound 5 µg/mL, partner 8 µg/mL	0.72

main component drawn
Settings	Bliss interaction score
B. subtilis 168 [5]	0.152
S. aureus DSM 20231	-0.0757
S. aureus Newman [4]	0.152
S. pneumoniae D39V [6]	-0.0335

O=C(O)c1cn(C2CC2)c2cc(N3CCNCC3)c(F)cc2c1=O [Ciprofloxacin] + CN1C2=CC=CC=C2N=C3C1=CC=CC3=O [Pyocyanin]
Settings	fitness
B. subtilis 168 [2], first compound 0.0098 µg/mL, partner 1.25 µg/mL	0.911
B. subtilis 168 [2], first compound 0.0098 µg/mL, partner 2.5 µg/mL	0.809
B. subtilis 168 [2], first compound 0.0098 µg/mL, partner 5 µg/mL	0.814
B. subtilis 168 [2], first compound 0.0195 µg/mL, partner 2.5 µg/mL	0.703
B. subtilis 168 [2], first compound 0.0195 µg/mL, partner 5 µg/mL	0.649
S. aureus Newman [1], first compound 0.0375 µg/mL, partner 1.25 µg/mL	0.601
S. aureus Newman [1], first compound 0.0375 µg/mL, partner 2.5 µg/mL	0.574
S. aureus Newman [1], first compound 0.0375 µg/mL, partner 5 µg/mL	0.38
S. aureus Newman [1], first compound 0.075 µg/mL, partner 1.25 µg/mL	0.578
S. aureus Newman [1], first compound 0.075 µg/mL, partner 2.5 µg/mL	0.533
S. aureus Newman [1], first compound 0.075 µg/mL, partner 5 µg/mL	0.26
S. aureus Newman [1], first compound 0.15 µg/mL, partner 1.25 µg/mL	0.0395
S. aureus Newman [1], first compound 0.15 µg/mL, partner 2.5 µg/mL	0.0384
S. aureus Newman [1], first compound 0.15 µg/mL, partner 5 µg/mL	0.0694
S. pneumoniae D39V [3], first compound 0.125 µg/mL, partner 0.325 µg/mL	0.989
S. pneumoniae D39V [3], first compound 0.125 µg/mL, partner 0.65 µg/mL	0.966
S. pneumoniae D39V [3], first compound 0.125 µg/mL, partner 1.3 µg/mL	0.755
S. pneumoniae D39V [3], first compound 0.25 µg/mL, partner 0.325 µg/mL	0.924
S. pneumoniae D39V [3], first compound 0.25 µg/mL, partner 0.65 µg/mL	0.92

Settings	fitness
S. pneumoniae D39V [3], first compound 0.25 µg/mL, partner 1.3 µg/mL, one replicate	0.54

Settings	Bliss interaction score
B. subtilis 168 [5]	0.104
S. aureus DSM 20231	0.0671
S. aureus Newman [4]	-0.0511
S. pneumoniae D39V [6]	0.0709

O=C(O)c1cn(C2CC2)c2cc(N3CCNCC3)c(F)cc2c1=O [Ciprofloxacin] + O=C(O[C@@H]1Cc2c(O)cc(O)cc2O[C@@H]1c1cc(O)c(O)c(O)c1)c1cc(O)c(O)c(O)c1 [EGCG]
fitness
Settings	partner 6.25 µg/mL	partner 12.5 µg/mL	partner 25 µg/mL	partner 50 µg/mL
B. subtilis 168 [2], first compound 0.0098 µg/mL	0.878	–	–	–
B. subtilis 168 [2], first compound 0.0195 µg/mL	0.741	0.54	0.375	–
B. subtilis 168 [2], first compound 0.039 µg/mL	–	0.35	0.295	–
S. aureus Newman [1], first compound 0.0375 µg/mL	–	0.666	0.557	0.544
S. aureus Newman [1], first compound 0.075 µg/mL	–	0.55	0.534	0.609
S. aureus Newman [1], first compound 0.15 µg/mL	–	0.0805	0.0356	0.053
S. pneumoniae D39V [3], first compound 0.125 µg/mL	–	0.931	0.907	0.971
S. pneumoniae D39V [3], first compound 0.25 µg/mL	–	0.796	0.889	0.69

Settings	Bliss interaction score
B. subtilis 168 [5]	0.149
S. aureus DSM 20231	0.0949
S. aureus Newman [4]	-0.0544
S. pneumoniae D39V [6]	-0.0717
